Measurements as given in BindingDB's records for patent US20230271939 (Ip2Ipo Innovations, 2023).

Key:
eIF-2-alpha kinase GCN2 [1] = target: T1, eIF-2-alpha kinase GCN2 (Homo sapiens, UniProt Q9P2K8); experiment: GCN2 Enzyme Inhibition (ATP 10 uM)
Protocol: (§1) The inhibitory activity of the Example compounds towards GCN2 enzyme was measured according to the description below, using a LanthaScreen TR-FRET (Time Resolved Fluorescence Resonance Energy Transfer) Kinase Activity assay distributed by ThermoFisher Scientific. The full-length human GCN2 enzyme (UniProt accession number Q9P2K8) was used for all experiments (Carna Bioscience). The TR-FRET pair was composed of GFP-eIF2α and LanthaScreen Terbium-labeled anti-peIF2α (pSer52) Antibody. […] Full inhibition (3000 nM commercial reference inhibitor) and DMSO vehicle control wells were also included on the same plate. All volumes were normalized to the final DMSO concentration of 2% of the reaction volume. Next, 5 μL of H2O was added to each well of the plate.

eIF-2-alpha kinase GCN2 [2] = target: T1, eIF-2-alpha kinase GCN2; experiment: GCN2 Enzyme Inhibition (ATP 300 uM)
Protocol: as §1

T1 sequence (Q9P2K8 whole entry): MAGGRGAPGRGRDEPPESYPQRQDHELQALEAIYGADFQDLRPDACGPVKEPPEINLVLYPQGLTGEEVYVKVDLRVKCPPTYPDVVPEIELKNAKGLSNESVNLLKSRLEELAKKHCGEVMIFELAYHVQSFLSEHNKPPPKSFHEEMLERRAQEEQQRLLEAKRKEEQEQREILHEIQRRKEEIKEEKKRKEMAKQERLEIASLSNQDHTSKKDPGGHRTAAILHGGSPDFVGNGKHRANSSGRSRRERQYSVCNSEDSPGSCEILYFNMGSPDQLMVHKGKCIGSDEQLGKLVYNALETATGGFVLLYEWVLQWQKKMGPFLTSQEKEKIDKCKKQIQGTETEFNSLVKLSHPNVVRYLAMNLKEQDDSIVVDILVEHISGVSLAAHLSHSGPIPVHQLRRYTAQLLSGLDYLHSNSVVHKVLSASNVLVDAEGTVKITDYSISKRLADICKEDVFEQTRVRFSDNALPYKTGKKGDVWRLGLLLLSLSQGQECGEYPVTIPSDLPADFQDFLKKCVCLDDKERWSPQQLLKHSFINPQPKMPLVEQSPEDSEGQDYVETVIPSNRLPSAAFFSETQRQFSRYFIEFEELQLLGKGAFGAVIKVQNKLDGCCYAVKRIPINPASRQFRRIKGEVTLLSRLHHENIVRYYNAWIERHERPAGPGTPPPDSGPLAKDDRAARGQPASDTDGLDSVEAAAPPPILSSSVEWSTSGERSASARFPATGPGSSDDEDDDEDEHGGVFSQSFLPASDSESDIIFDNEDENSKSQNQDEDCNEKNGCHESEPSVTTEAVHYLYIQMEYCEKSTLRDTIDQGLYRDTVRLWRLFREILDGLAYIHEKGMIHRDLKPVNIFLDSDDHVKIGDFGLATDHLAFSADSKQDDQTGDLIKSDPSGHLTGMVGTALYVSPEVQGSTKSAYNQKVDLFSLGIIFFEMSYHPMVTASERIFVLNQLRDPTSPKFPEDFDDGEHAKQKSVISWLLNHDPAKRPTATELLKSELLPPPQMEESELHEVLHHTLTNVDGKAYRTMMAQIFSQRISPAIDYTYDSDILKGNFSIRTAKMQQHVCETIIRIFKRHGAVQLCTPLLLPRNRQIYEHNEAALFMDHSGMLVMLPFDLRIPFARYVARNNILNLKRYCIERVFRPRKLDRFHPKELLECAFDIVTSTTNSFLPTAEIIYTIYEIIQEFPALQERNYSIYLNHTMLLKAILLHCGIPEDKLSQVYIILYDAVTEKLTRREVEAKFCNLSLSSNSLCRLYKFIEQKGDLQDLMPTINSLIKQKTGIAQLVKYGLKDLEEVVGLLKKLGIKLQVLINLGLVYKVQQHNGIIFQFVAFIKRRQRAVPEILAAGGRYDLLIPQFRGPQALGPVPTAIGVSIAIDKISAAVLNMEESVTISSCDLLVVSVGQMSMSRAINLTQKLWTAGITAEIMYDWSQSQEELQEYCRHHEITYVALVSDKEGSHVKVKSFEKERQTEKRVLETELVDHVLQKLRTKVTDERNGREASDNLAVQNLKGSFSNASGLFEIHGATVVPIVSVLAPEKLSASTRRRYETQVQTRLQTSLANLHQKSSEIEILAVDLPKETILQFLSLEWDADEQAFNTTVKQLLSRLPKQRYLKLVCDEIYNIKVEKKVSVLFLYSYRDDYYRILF

IC50 (eIF-2-alpha kinase GCN2 [1]): 0.0191 µM | Ki (eIF-2-alpha kinase GCN2 [1]): 0.0061 µM | IC50 (eIF-2-alpha kinase GCN2 [2]): 0.0573 µM | Ki (eIF-2-alpha kinase GCN2 [2]): 0.0009 µM
Structure (SMILES): COc1ncc(Cl)cc1S(=O)(=O)Nc1ncc(F)c(C#Cc2cnc(N)nc2)c1F [US20230271939, Example 10]
